Assay results taken from patent publication US20160031937A1, “NEURAL REGENERATION PEPTIDES AND USES THEREFOR” (CURONZ HOLDINGS COMPANY LIMITED, priority 2013, published 2016).
Where two headings read alike, the source gives them in different places. Square brackets hold non-standard residues; d marks the D form. Ends that are not written are not given here. Aib = CC(C)(N)C(=O)O

Legend:
[1] = test system: W9-hESCs; assay: TUNEL staining for apoptotic cell death after OGD injury; type: cell-based, human; details: 24 hours, 100 pM NRP2945
Procedure: (§1) Neuronal differentiation was achieved using the noggin induction method described for mouse neurospheres as adapted by Dottori for human neurospheres (Dottori & Pera, 2007). The colonies were maintained at 37° C., with 5% CO2 in hESC medium supplemented with 500 ng/ml of Noggin for 14 days while replacing Noggin every other day.
At this point, the cells were washed with PBS and the colonies were again mechanically dissociated, but this time the central (differentiated) part of the colony was also cut into smaller pieces using a 26-gauge needle. The pieces were transferred to individual wells in a low adherent 96-well plate containing Neurobasal®A (NBM) (Invitrogen) supplemented with 1× X B-27® (Invitrogen) and 1× N-2 (Invitrogen) 20 ng/ml human recombinant EGF and 20 ng/ml human recombinant bFGF (Pharmacia). […]
To maintain isoosmotic pressure conditions, 25 mM 2-deoxy-D-glucose was added to NBM-AO medium and equilibrated for 30 minutes at room temperature before the initial media change as described above. […] Culture supernatant was removed after this 4 hour period and stored at 4° C. until analysed for lactate dehydrogenase (LDH) activity. […]
Tunnel positive cells, wells were imaged and the images re-coded independently before quantitation. No additional blinding was performed for the machine read LDH assay process.

[2] = test system: human W9-hESCs; assay: H2O2 induced oxidative stress injury, LDH detected cell death; type: cell-based; details: for cell death reduced by (LDH): 50 μM H2O2, first 4 hours, corrected for basal injury; for reduced LDH release, net effect at 24 hours: H2O2 injury; for reduction of LDH detected cell death: between removal of H2O2 at 4 hours and 24 hours; for reduction of LDH release, net effect at 24 hours: H2O2
Procedure: (§2) Experiments with human embryonic stem cells (hESC) were carried out in accordance with the guidelines and regulations of the NHMRC and with the approval of the Austin Health Human Research Ethics Committee (Approval number H2008/03194), and University of Melbourne Human Research Ethics Committee (Approval number 0605017). H9 (WA-09, WiCell) cell lines were grown as previously described (Dottori & Pera, 2007).
(§3) Briefly, hESC were cultured on mitomycin-C treated mouse embryonic fibroblasts (MEFs) in hESC medium consisting of high-glucose Dulbecco's Modified Eagle Medium (DMEM) without sodium pyruvate, supplemented with 1% insulin/transferrin/selenium, 0.1 mM β-mercaptoethanol, 1% nonessential amino acids (NEAA), 2 mM glutamine, 25 U/ml penicillin, 25 μg/ml streptomycin (all from Invitrogen) and 20% fetal calf serum (FCS) (Hyclone).
(§4) Alternatively, hESC were cultured on mitomycin-C treated human foreskin fibroblasts (HFF; ATCC, CRL-2097) in KSR media consisting of DMEM/nutrient mixture F-12, supplemented with 0.1 mM […], 1% nonessential amino acids (NEAA), 2 mM glutamine, 25 U/ml penicillin, 25 μg/ml streptomycin and 20% knockout serum replacement (all from Invitrogen).
(§5) All cells were cultured at 37° C. in 5% CO2 with 100% humidity. Colonies were mechanically dissected every 7 days (subcultivated or passaged) and transferred to freshly prepared MEFs or HFFs. Media was changed every second day.
as §1
(§6) At this point, the cells were washed with PBS and the colonies were again mechanically dissociated, but this time the central (differentiated) part of the colony was also cut into smaller pieces using a 26-gauge needle. The pieces were transferred to individual wells in a low adherent 96-well plate containing Neurobasal®A (NBM) (Invitrogen) supplemented with 1× X B-27® (Invitrogen) and 1× N-2 (Invitrogen) 20 ng/ml human recombinant EGF and 20 ng/ml human recombinant bFGF (Pharmacia). Media was changed every 2 to 3 days to allow neurosphere formation over 2 weeks.
(§7) In order to facilitate neuronal differentiation, neurospheres were again separated into smaller pieces under a dissection microscope, and three to four pieces were transferred to each well of a 96-well plate. Prior to this transfer, the plate was pre-coated with poly-D-lysine (10 μg/ml in PBS), washed in PBS, recoated with mouse laminin (5 μg/ml in PBS), and washed again. The cells were then grown for 11 days (with media changed every two days) in NBM lacking growth factors prior to induction of injury and assessment of hypothermia.
(§8) On the day of experiments, the medium was changed to NBM+N2 containing a B27 preparation lacking the usual antioxidants (Invitrogen; 10889-038) to eliminate their confounding effects (NBM-AO).
The media was replaced with fresh NBM-AO and the cells were incubated for a further 20 hours containing drug, before again measuring LDH. Oxidative stress was induced by adding 50 μM fresh H2O2 (Sigma, H1009) to the growth factor negative NBM on initiation of the experiment with continued culture for 4 hours when LDH was measured and NBM-AO without H2O2 was returned to the culture which was maintained for a further 20 hours before again measuring LDH. […]
Measurement of lactate dehydrogenase activity (a marker of total cell death) and TUNEL staining (a marker of apoptotic death) was performed according to the kit manufacturer's instructions (Roche, 1164479001 and 11684795910 respectively).
Within experiments, each comparison was performed at least in triplicate and the mean of these values taken forward into group comparisons. […]

[3] = test system: human W9-hESCs; type: cell-based; details: for reduction in LDH detected cell death: first 4 hours; for decrease of delayed injury (LDH): between removal of OGD at 4 hours and 24 hours
Procedure: as §2, §3, §4, §5, §1, §6, §7, §8
To maintain isoosmotic pressure conditions, 25 mM 2-deoxy-D-glucose was added to NBM-AO medium and equilibrated for 30 minutes at room temperature before the initial media change as described above. […] Culture supernatant was removed after this 4 hour period and stored at 4° C. until analysed for lactate dehydrogenase (LDH) activity.
The media was replaced with fresh NBM-AO and the cells were incubated for a further 20 hours containing drug, before again measuring LDH. Oxidative stress was induced by adding 50 μM fresh H2O2 (Sigma, H1009) to the growth factor negative NBM on initiation of the experiment with continued culture for 4 hours when LDH was measured and NBM-AO without H2O2 was returned to the culture which was maintained for a further 20 hours before again measuring LDH.

## Gly Arg Arg Ala Ala Pro Gly Arg Aib Gly Gly (GRRAAPGR[Aib]GG) [NRP2945, synthetic 11-mer peptidomimetic optimized for stability and pharmacokinetics]
[1]
  W9-hESCs protected from apoptotic cell death (TUNEL): 23%
[2]; 1 pM NRP2945 at injury induction
  cell death reduced by (LDH): 35%
[2]; 1 fM NRP2945 at injury induction
  cell death reduced by (LDH): 23.2%
[2]; 10 fM NRP2945 at injury induction
  cell death reduced by (LDH): 40%
[2]; 100 fM NRP2945 at injury induction
  cell death reduced by (LDH): 44%
[2]; 1 pM NRP2945
  reduced LDH release, net effect at 24 hours: 26%
[2]; 1 fM NRP2945
  reduced LDH release, net effect at 24 hours: 27%
[2]; 10 fM NRP2945
  reduced LDH release, net effect at 24 hours: 48%
  reduction of LDH detected cell death: 70%
[2]; 100 fM NRP2945
  reduced LDH release, net effect at 24 hours: 47%
  reduction of LDH detected cell death: 57%
[2]; repeat experiment, 10 fM NRP2945 added at 0 hours
  reduction of LDH release, net effect at 24 hours: 48%
[2]; repeat experiment, 10 fM NRP2945 added at 1 hour
  reduction of LDH release, net effect at 24 hours: 35%
[2]; repeat experiment, 10 fM NRP2945 added at 3 hours (p≦0.124)
  reduction of LDH release, net effect at 24 hours: 23%
[2]; repeat experiment, 100 fM NRP2945 added at 0 hours
  reduction of LDH release, net effect at 24 hours: 41%
[2]; repeat experiment, 100 fM NRP2945 added at 1 hour
  reduction of LDH release, net effect at 24 hours: 39%
[2]; repeat experiment, 100 fM NRP2945 added at 3 hours
  reduction of LDH release, net effect at 24 hours: 27%
[2]; repeat experiment, first 4 hours of H2O2 injury, 10 fM NRP2945 added at 0 hours
  reduction in cell death (LDH): 40%
[2]; repeat experiment, first 4 hours of H2O2 injury, 10 fM NRP2945 administered one hour after injury induction
  reduction in cell death (LDH): 35%
[2]; repeat experiment, first 4 hours of H2O2 injury, 100 fM NRP2945 added at 0 hours
  reduction in cell death (LDH): 37%
[2]; repeat experiment, first 4 hours of H2O2 injury, 100 fM NRP2945 administered one hour after injury induction
  reduction in cell death (LDH): 33%
[2]; repeat experiment, first 4 hours of H2O2 injury, NRP2945 added 3 hours after injury induction (1 hour exposure)
  effect on cell death (LDH): no significant beneficial effect
[3]; 100 fM NRP2945
  neuroprotective effects during OGD: did not show neuroprotective effects
[3]; 4 hours of OGD injury, 100 pM NRP2945 plus 300 nM AMD3100
  decrease in LDH detected cell death in presence of CXCR4 inhibitor: abolished
[3]; AMD3100 experiment, 4 hours of OGD injury, 100 pM NRP2945 without inhibitor
  decrease in LDH detected cell death: 44%
[3]; AMD3100 experiment, OGD, 100 pM NRP2945 without inhibitor
  reduction of LDH release, net effect at 24 hours: 55%
[3]; OGD, 1 pM NRP2945 at injury induction
  reduction in LDH detected cell death: 23%
[3]; OGD, 10 pM NRP2945 at injury induction
  reduction in LDH detected cell death: 37%
[3]; OGD, 100 pM NRP2945 at injury induction
  reduction in LDH detected cell death: 43%
[3]; OGD, 1 pM NRP2945
  reduction of LDH release, net effect at 24 hours: 28%
[3]; OGD, 10 pM NRP2945
  reduction of LDH release, net effect at 24 hours: 44%
[3]; OGD, 100 pM NRP2945
  reduction of LDH release, net effect at 24 hours: 52%
[3]; OGD, 100 pM NRP2945 plus 300 nM AMD3100
  reduction of LDH release, net effect at 24 hours, in presence of CXCR4 inhibitor: blocked
[3]; OGD, 100 fM NRP2945
  reduction of LDH release, net effect at 24 hours: 17%
[3]; 10 pM NRP2945
  decrease of delayed injury (LDH): 67%
[3]; 100 pM NRP2945
  decrease of delayed injury (LDH): 79%
[3]; repeat experiment, OGD, 10 pM NRP2945 during injury induction
  reduction in LDH detected cell death: 41%
[3]; repeat experiment, OGD, 10 pM NRP2945 one hour after injury induction
  reduction in LDH detected cell death: 31%
[3]; repeat experiment, OGD, 100 pM NRP2945 during injury induction
  reduction in LDH detected cell death: 47%
[3]; repeat experiment, OGD, 100 pM NRP2945 one hour after injury induction
  reduction in LDH detected cell death: 34%
[3]; repeat experiment, OGD, 10 pM NRP2945 added at 0 hours
  reduction of LDH release, net effect at 24 hours: 48%
[3]; repeat experiment, OGD, 10 pM NRP2945 added at 1 hour
  reduction of LDH release, net effect at 24 hours: 36%
[3]; repeat experiment, OGD, 10 pM NRP2945 added at 3 hours
  reduction of LDH release, net effect at 24 hours: 22%
[3]; repeat experiment, OGD, 100 pM NRP2945 added at 0 hours
  reduction of LDH release, net effect at 24 hours: 54%
[3]; repeat experiment, OGD, 100 pM NRP2945 added at 1 hour
  reduction of LDH release, net effect at 24 hours: 35%
[3]; repeat experiment, OGD, 100 pM NRP2945 added at 3 hours
  reduction of LDH release, net effect at 24 hours: 22%
